Experimental findings from US9994628B2, “Peptides and combination of peptides for use in immunotherapy against various tumors” (IMMATICS BIOTECHNOLOGIES GMBH, priority 2015, dated 2018) are described below.

One assay deals with CD8+ T cells. The experiment in a line: In vitro T-cell priming assay with aAPCs loaded with peptide/MHC complexes and anti-CD28 antibody, pMHC multimer readout. Format: cell-based, human. To be noted: for donors (in vitro immunogenicity): positive donors; for donors (in vitro immunogenicity) / wells (in vitro immunogenicity): healthy HLA-A*02 donors, three stimulation cycles; for wells (in vitro immunogenicity): positive wells; for Wells positive [%]: percentage of positive wells among evaluable, HLA-A*02 restricted peptides. From the text:
In order to obtain information regarding the immunogenicity of the TUMAPs of the present invention, the inventors performed investigations using an in vitro T-cell priming assay based on repeated stimulations of CD8+ T cells with artificial antigen presenting cells (aAPCs) loaded with peptide/MHC complexes and anti-CD28 antibody.
In order to perform in vitro stimulations by artificial antigen presenting cells loaded with peptide-MHC complex (pMHC) and anti-CD28 antibody, the inventors first isolated CD8+ T cells from fresh HLA-A*02 leukapheresis products via positive selection using CD8 microbeads (Miltenyi Biotec, Bergisch-Gladbach, Germany) of healthy donors obtained from the University clinics Mannheim, Germany, after informed consent. PBMCs and isolated CD8+ lymphocytes were incubated in T-cell medium (TCM) until use consisting of RPMI-Glutamax (Invitrogen, Karlsruhe, Germany) supplemented with 10% heat inactivated human AB serum (PAN-Biotech, Aidenbach, Germany), 100 U/ml Penicillin/100 μg/ml Streptomycin (Cambrex, Cologne, Germany), 1 mM sodium pyruvate (CC Pro, Oberdorla, Germany), 20 μg/ml Gentamycin (Cambrex). 2.5 ng/ml IL-7 (PromoCell, Heidelberg, Germany) and 10 U/ml IL-2 (Novartis Pharma, Nümberg, Germany) were also added to the TCM at this step. Generation of pMHC/anti-CD28 coated beads, T-cell stimulations and readout was performed in a highly defined in vitro system using four different pMHC molecules per stimulation condition and 8 different pMHC molecules per readout condition.
The purified co-stimulatory mouse IgG2a anti human CD28 Ab 9.3 (Jung et al., 1987) was chemically biotinylated using Sulfo-N-hydroxysuccinimidobiotin as recommended by the manufacturer (Perbio, Bonn, Germany). Beads used were 5.6 μm diameter streptavidin coated polystyrene particles (Bangs Laboratories, Illinois, USA).
pMHC used for positive and negative control stimulations were A*0201/MLA-001 (peptide […] (SEQ ID NO. 289) from modified Melan-A/MART-1) and A*0201/DDX5-001 ([…] from DDX5, SEQ ID NO. 290), respectively.
800.000 beads/200 μl were coated in 96-well plates in the presence of 4×12.5 ng different biotin-pMHC, washed and 600 ng biotin anti-CD28 were added subsequently in a volume of 200 μl. Stimulations were initiated in 96-well plates by co-incubating […] CD8+ T cells with 2×10^5 washed coated beads in 200 μl TCM supplemented with 5 ng/ml IL-12 (PromoCell) for 3 days at 37° C. Half of the medium was then exchanged by fresh TCM supplemented with 80 U/ml IL-2 and incubating was continued for 4 days at 37° C. This stimulation cycle was performed for a total of three times. For the pMHC multimer readout using 8 different pMHC molecules per condition, a two-dimensional combinatorial coding approach was used as previously described (Andersen et al., 2012) with minor modifications encompassing coupling to 5 different fluorochromes. Finally, multimeric analyses were performed by staining the cells with Live/dead near IR dye (Invitrogen, Karlsruhe, Germany), CD8-FITC antibody clone SK1 (BD, Heidelberg, Germany) and fluorescent pMHC multimers. For analysis, a BD LSRII SORP cytometer equipped with appropriate lasers and filters was used. Peptide specific cells were calculated as percentage of total CD8+ cells. Evaluation of multimeric analysis was done using the FlowJo software (Tree Star, Oregon, USA). In vitro priming of specific multimer+ CD8+ lymphocytes was detected by comparing to negative control stimulations.

The target of another assay is HLA-A*02:01 (Homo sapiens, UniProt P04439, D140Y/D185E/D98H/E176V/E277Q/G131W/G231S/I119V/I121R/I166T/I218V/L300P/L318F/N151K/N90K/P208A/P217A/Q86G/Q94H/R138H/R169H/T345S). Description: MHC binding assay: UV-ligand exchange and β2m ELISA (peptide exchange yield, Table 7). To be noted: binding of HLA-class I restricted peptides to HLA-A*02:01, UV-ligand exchange. The procedure, abridged:
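Peptide-MHC complexes made by UV-mediated exchange of a cleavable ligand for test peptide; exchange yield measured by ELISA detecting β2m of stabilized complexes captured on streptavidin, using refolded HLA-A*02:01/MLA-001 monomer standards (15-500 ng/ml). Samples diluted 100-fold; HRP anti-β2m, TMB, absorbance 450 nm.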
(In an ELISA, binding on a coated surface is turned into a signal by an enzyme label.)

Turning to “288 (SLYKGLLSV; listed as Homo sapiens) [compound 288]”, in the assay on CD8+ T cells, the “donors (in vitro immunogenicity)” value is on record as “++++ (>=70% = ++++)” and the “wells (in vitro immunogenicity)” value is on record as “++ (21%-49% = ++)”.

Regarding “39 (YLEDGFAYV; listed as Homo sapiens) [compound 39]”, in the assay with HLA-A*02:01, the “Peptide exchange (MHC class I binding score, peptide exchange yield)” value is “+++ (≥50% = +++)”. In the assay on CD8+ T cells, the “Wells positive [%]” value was “++++ (>=70% = ++++)”.

Turning to “287 (KIQEILTQV; listed as Homo sapiens) [compound 287]”, in the assay on CD8+ T cells, the “donors (in vitro immunogenicity)” value was “+++ (50%-69% = +++)” and the “wells (in vitro immunogenicity)” value was “+ (<20% = +)”.

With “34 (TLNTLDINL; listed as Homo sapiens) [compound 34]”, the “Peptide exchange (MHC class I binding score, peptide exchange yield)” value with HLA-A*02:01 is “+++ (≥50% = +++)”. The “Wells positive [%]” value in the assay with CD8+ T cells was “++++ (>=70% = ++++)”.
